This test concerns influenza virus. Put plainly: microbe, parasite or virus in culture. The format is cell-based, influenza virus (MDBK or MDCK cells). As to conditions: unidentified influenza virus, 72 h, read-out: CPE EC50, effective concentration to achieve 50% CPE inhibition, 3 days incubation, WST-8.

For `O=C(O)c1cn2c(c(O)c1=O)C(=O)N(Cc1ccc(F)cc1F)C[C@@H]2C(c1ccccc1)c1ccccc1` [Example 16], the EC50 is 632 nM.

In the case of `CCCN1C[C@H](C(c2ccccc2)c2ccccc2)n2cc(C(=O)O)c(=O)c(O)c2C1=O` [Example 181], the EC50 was determined as 349 nM. For the molecule `CC(C)=CCN1C[C@H](C(c2ccccc2)c2ccccc2)n2cc(C(=O)O)c(=O)c(O)c2C1=O` [Example 182], the EC50 was 562 nM.

Take `CC(C)OCCN1C[C@H](C(c2ccccc2)c2ccccc2)n2cc(C(=O)O)c(=O)c(O)c2C1=O` [Example 184]: the EC50 was determined as 403 nM.

In the case of `CCC(C)N1C[C@H](C(c2ccccc2)c2ccccc2)n2cc(C(=O)O)c(=O)c(O)c2C1=O` (stereo partly drawn) [Example 186], the EC50 came to 159 nM. `CCCC(C)N1C[C@H](C(c2ccccc2)c2ccccc2)n2cc(C(=O)O)c(=O)c(O)c2C1=O` (stereo partly drawn) [Example 187]: the EC50 is 282 nM.

Turning to `CC(C)N1CN(Cc2ccc(Cl)c(Cl)c2)n2ccc(=O)c(O)c2C1=O` [Example 199], the EC50 came out at 2720 nM. With `CC(N1CN(C(c2ccccc2)c2ccccc2Cl)n2ccc(=O)c(O)c2C1=O)C(F)(F)F` (stereo not drawn) [Example 242], the EC50 was found to be 59 nM. Consider `COCCN1CN(C2c3ccccc3CCc3ccccc32)n2ccc(=O)c(O)c2C1=O` [Example 258], for which the EC50 amounted to 28 nM.

Take `CC(=O)OCC(C)N1CN(C2c3ccccc3CCc3ccccc32)n2ccc(=O)c(O)c2C1=O` (stereo not drawn) [Example 261]: the EC50 turned out to be 47 nM.

For the molecule `O=C1c2c(O)c(=O)ccn2N(C2c3ccccc3CCc3ccccc32)CN1CCF` [Example 262], the EC50 is 38 nM. With `O=C1c2c(O)c(=O)ccn2N(C2c3ccccc3CCc3ccccc32)CN1CC(F)(F)F` [Example 263], the EC50 was determined as 75 nM. As for `CC(C)(C)N1CN(C2c3ccccc3CCc3ccccc32)n2ccc(=O)c(O)c2C1=O` [Example 265], the EC50 amounted to 36 nM. Take `COCCCN1CN(C2c3ccccc3CCc3ccccc32)n2ccc(=O)c(O)c2C1=O` [Example 267]: the EC50 is 63 nM. In the case of `CS(=O)(=O)CCN1CN(C2c3ccccc3CCc3ccccc32)n2ccc(=O)c(O)c2C1=O` [Example 269], the EC50 came out at 417 nM.

On to `Cc1noc(CN2CN(C3c4ccccc4CCc4ccccc43)n3ccc(=O)c(O)c3C2=O)n1` [Example 270], for which the EC50 turned out to be 129 nM. As to `CC(=O)OCCN1CN(C2c3ccccc3CCc3ccccc32)n2ccc(=O)c(O)c2C1=O` [Example 276], the EC50 was determined as 89 nM. `CC(C)N1CN(C2c3cc(F)ccc3CCc3ccc(F)cc32)n2ccc(=O)c(O)c2C1=O` [Example 279]: the EC50 is 119 nM. For the molecule `CC(C)N1CN(C2c3ccccc3CCc3c(Cl)cccc32)n2ccc(=O)c(O)c2C1=O` (stereo not drawn) [Example 282], the EC50 is 29 nM. In the case of `CC(C)N1CN(C2c3ccc(F)cc3CCc3cc(F)ccc32)n2ccc(=O)c(O)c2C1=O` [Example 284], the EC50 amounted to 19 nM.

With `CC(=O)N1CC[C@@H](N2CN(C3c4ccccc4CSc4ccccc43)n3ccc(=O)c(O)c3C2=O)C1` (stereo partly drawn) [Example 289], the EC50 turned out to be 419 nM. Take `CN1CCC(CN2CN(C3c4ccccc4CSc4ccccc43)n3ccc(=O)c(O)c3C2=O)CC1` (stereo not drawn) [Example 292]: the EC50 came out at 2230 nM. Regarding `O=C1c2c(O)c(=O)ccn2N(C2c3ccccc3CSc3ccccc32)CN1CCOC(F)(F)F` (stereo not drawn) [Example 297], the EC50 was 33 nM. Next, `O=C1c2c(O)c(=O)ccn2N(C2c3ccccc3CSc3ccccc32)CN1CCCF` (stereo not drawn) [Example 298]: 12 nM; `CC(C)N1CN(C2c3ccccc3CSc3ccccc32)n2ccc(=O)c(O)c2C1=O` (stereo not drawn) [Example 301]: 17 nM. Regarding `O=C1c2c(O)c(=O)ccn2N(C2c3ccccc3CSc3ccccc32)CN1CC(F)(F)F` (stereo not drawn) [Example 306], the EC50 was 21 nM. As to `CCOCCN1CN(C2c3ccccc3CSc3ccccc32)n2ccc(=O)c(O)c2C1=O` (stereo not drawn) [Example 312], the EC50 was 29 nM. With `COCC(COC)N1CN(C2c3ccccc3CSc3ccccc32)n2ccc(=O)c(O)c2C1=O` (stereo not drawn) [Example 318], the EC50 was 15 nM. In the case of `CC(=O)OCCN1CN(C2c3ccccc3CSc3ccccc32)n2ccc(=O)c(O)c2C1=O` (stereo not drawn) [Example 325], the EC50 came out at 25 nM. Turning to `CC(C)N1CN(C2c3ccccc3CSc3ccc(Cl)cc32)n2ccc(=O)c(O)c2C1=O` (stereo not drawn) [Example 328], the EC50 was found to be 168 nM. Regarding `COCC(COC)N1CN(C2c3cc(F)ccc3CSc3ccc(F)cc32)n2ccc(=O)c(O)c2C1=O` (stereo not drawn) [Example 340], the EC50 was determined as 27 nM. `CC(N1CN(C2c3ccccc3CSc3c(F)cccc32)n2ccc(=O)c(O)c2C1=O)C(F)(F)F` (stereo not drawn) [Example 342]: the EC50 was 26 nM.

As to `CC(C)N1CN(C2c3ccccc3CSc3c(F)cccc32)n2ccc(=O)c(O)c2C1=O` (stereo not drawn) [Example 351], the EC50 amounted to 19 nM. Turning to `CN1CN(C2c3ccccc3CSc3c(F)cccc32)n2ccc(=O)c(O)c2C1=O` (stereo not drawn) [Example 354], the EC50 was 83 nM.

As for `CC(CO)N1CN(C2c3ccccc3CCc3ccccc32)n2ccc(=O)c(O)c2C1=O` (stereo not drawn) [Example 362], the EC50 came to 67 nM. In the case of `O=C1c2c(O)c(=O)ccn2N(C2c3ccccc3CCc3ccccc32)CN1CC(O)CO` (stereo not drawn) [Example 364] it was 515 nM; in that of `CC(C)C[C@H](CO)N1CN(C2c3ccccc3CSc3ccccc32)n2ccc(=O)c(O)c2C1=O` (stereo partly drawn) [Example 374], 154 nM; in that of `CC(C)C[C@@H](CO)N1CN(C2c3ccccc3CSc3ccccc32)n2ccc(=O)c(O)c2C1=O` (stereo partly drawn) [Example 377], 22 nM. Turning to `CC(C)(C)[C@@H](CO)N1CN(C2c3ccccc3CSc3ccccc32)n2ccc(=O)c(O)c2C1=O` (stereo partly drawn) [Example 380], the EC50 was found to be 18 nM.

For the molecule `CC(C)(C)[C@H](CO)N1CN(C2c3ccccc3CSc3ccccc32)n2ccc(=O)c(O)c2C1=O` (stereo partly drawn) [Example 381], the EC50 came to 34 nM. Next, `O=C1c2c(O)c(=O)ccn2N(C2c3ccccc3CSc3c(Cl)cccc32)CN1CCO` (stereo not drawn) [Example 382]: 94 nM; `CC(C)N1CN(C2c3ccccc3COc3ccccc32)n2ccc(=O)c(O)c2C1=O` (stereo not drawn) [Example 391]: 71 nM. With `COCCN1CN(C2c3ccccc3COc3cc(F)ccc32)n2ccc(=O)c(O)c2C1=O` (stereo not drawn) [Example 397], the EC50 was determined as 77 nM. Consider `COCCN1CN(C2c3ccccc3COc3ccc(F)cc32)n2ccc(=O)c(O)c2C1=O` (stereo not drawn) [Example 401], for which the EC50 came to 133 nM.

As for `COCCN1CN(C2c3cc(F)ccc3COc3cc(F)ccc32)n2ccc(=O)c(O)c2C1=O` (stereo not drawn) [Example 402], the EC50 amounted to 81 nM. With `CC(N1CN(C2c3ccccc3COc3c(F)cccc32)n2ccc(=O)c(O)c2C1=O)C(F)(F)F` (stereo not drawn) [Example 406], the EC50 is 22 nM. With `CC(C)N1CN(C2c3ccc(Cl)cc3COc3ccccc32)n2ccc(=O)c(O)c2C1=O` (stereo not drawn) [Example 409], the EC50 is 29 nM. For the molecule `C[C@@H](N1CN(C2c3ccccc3COc3ccc(F)cc32)n2ccc(=O)c(O)c2C1=O)C(F)(F)F` (stereo partly drawn) [Example 410], the EC50 came out at 14 nM.

`C[C@@H](N1CN([C@H]2c3ccccc3CSc3ccccc32)n2ccc(=O)c(O)c2C1=O)C(F)(F)F` [Example 413]: the EC50 came out at 5 nM. As for `C[C@H](N1CN([C@@H]2c3ccccc3CSc3ccccc32)n2ccc(=O)c(O)c2C1=O)C(F)(F)F` [Example 415], the EC50 was 22 nM. Regarding `C[C@H](N1CN([C@H]2c3ccccc3CSc3ccccc32)n2ccc(=O)c(O)c2C1=O)C(F)(F)F` [Example 416], the EC50 stood at 19 nM.

The values above are taken from US9815835B2, “Substituted polycyclic carbamolypyridone derivative” (priority 2009, dated 2017).
